The record followed here is ChEMBL document CHEMBL4145621, “4-Substituted Benzenesulfonamides Incorporating Bi/Tricyclic Moieties Act as Potent and Isoform-Selective Carbonic Anhydrase II/IX Inhibitors” (J Med Chem, 2018).

Chain of Carbonic anhydrase 1 (P00915 whole entry): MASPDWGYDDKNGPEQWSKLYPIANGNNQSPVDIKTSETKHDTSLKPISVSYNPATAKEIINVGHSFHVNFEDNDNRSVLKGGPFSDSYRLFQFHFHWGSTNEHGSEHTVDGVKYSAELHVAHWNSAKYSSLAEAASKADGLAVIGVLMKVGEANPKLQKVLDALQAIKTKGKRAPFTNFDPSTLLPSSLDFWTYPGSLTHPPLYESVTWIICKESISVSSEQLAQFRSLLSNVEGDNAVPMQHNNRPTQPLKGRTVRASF

One experiment addresses Carbonic anhydrase 9 (Homo sapiens, UniProt Q16790). Description: Inhibition of recombinant human CA9 preincubated for 15 mins by phenol red dye-based stopped-flow CO2 hydration assay.
`NS(=O)(=O)c1ccc(-n2ncc3c2CCCC3=O)cc1`: the Ki was 5.2 nM.

Regarding `NS(=O)(=O)c1ccc(-n2ncc3c2-c2cncnc2CC3)cc1`, the Ki came to 0.57 nM.

`CC1(C)CC(=O)c2cnn(-c3ccc(S(N)(=O)=O)cc3)c2C1`: the Ki was 0.88 nM.

For `Cc1ncc2c(n1)CCc1cnn(-c3ccc(S(N)(=O)=O)cc3)c1-2`, the Ki was 7 nM.

As to `NS(=O)(=O)c1ccc(Nc2ncc3c(n2)CC(c2ccccc2)CC3=O)cc1` (stereo not given), the Ki turned out to be 0.79 nM.

On to `CC1(C)CC(=O)c2cnc(Nc3ccc(S(N)(=O)=O)cc3)nc2C1`, for which the Ki was 0.89 nM.

As for `NS(=O)(=O)c1ccc(Nc2ncc3c(n2)CCCC3=O)cc1`, the Ki turned out to be 0.55 nM.

On to `NS(=O)(=O)c1ccc(-n2ncc3c2-c2cnc(-c4ccccc4)nc2CC3)cc1`, for which the Ki was determined as 7.3 nM.

On to `NS(=O)(=O)c1ccc(-n2ncc3c2CC(c2ccccc2)CC3=O)cc1` (stereo not given), for which the Ki is 0.73 nM.

A further experiment addresses Carbonic anhydrase 1 (Homo sapiens, UniProt P00915). Description: Inhibition of recombinant human cytosolic CA1 preincubated for 15 mins by phenol red dye-based stopped-flow CO2 hydration assay.
As to `NS(=O)(=O)c1ccc(-n2ncc3c2-c2cnc(-c4ccccc4)nc2CC3)cc1`, the Ki is over 10 µM.
